Laboratory results taken from patent US20120110703A1, “PROTEIN HAVING NOVEL PRENYLT[…] AND GENE ENCODING THE SAME” (KIRIN HOLDINGS KABUSHIKI KAISHA, priority 2009, published 2012).

Key:
H1PT1 prenyltransferase = biological target: T1, H1PT1 prenyltransferase (Humulus lupulus, UniProt A0A0B4ZTQ2); assay: Prenyltransferase activity of recombinant H1PT1 (yeast microsome fraction), LC-MS analysis of products; assay type: biochemical; settings: for activity of transferring a prenyl group to substrate (substrate specificity): geranyl diphosphate as prenyl group donor, LCMS-IT-TOF, FIGS. 6 and 7
T1 construct: made in house; host or cells: Saccharomyces cerevisiae W303-1A-Δcoq2 (microsome fraction)
T1 sequence (A0A0B4ZTQ2 47-408): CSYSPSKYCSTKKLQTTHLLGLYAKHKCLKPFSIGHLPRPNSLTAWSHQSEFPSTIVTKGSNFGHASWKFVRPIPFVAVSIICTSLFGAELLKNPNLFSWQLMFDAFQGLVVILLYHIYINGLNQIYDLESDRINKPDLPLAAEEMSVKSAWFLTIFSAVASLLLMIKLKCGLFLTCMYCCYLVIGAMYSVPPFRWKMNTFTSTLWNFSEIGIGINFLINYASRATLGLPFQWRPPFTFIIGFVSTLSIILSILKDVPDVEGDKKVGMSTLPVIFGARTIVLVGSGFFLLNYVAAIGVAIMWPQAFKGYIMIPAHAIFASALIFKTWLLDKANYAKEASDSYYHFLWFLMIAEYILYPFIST
Method: (§1) The enzyme of the present invention (340 μg to 730 μg), a substrate aromatic compound (1 mM) such as flavonoid, a prenyl group donor (1 mM), and MgCl2 (20 mM) are mixed in a 100 mM Tris-HCl buffer (pH 7.5) to bring the amount of the resultant to 200 μl, and the reaction is allowed to proceed at 30° C. overnight. After the completion of the reaction, the product is extracted with ethyl acetate, dried, and dissolved in MeOH. The resultant may be analyzed using a mass spectrometer or via chromatography.
Cloned plasmids (pDR196-H1PT1 and pDR196-H1PT2) comprising each full-length sequence of the two gene clusters (H1PT1 and H1PT2) were introduced into the yeast strain (W303-1A-Δcoq2) by the lithium acetate method. Culture was conducted in 180 ml of SD-Ura liquid medium up to the logarithmic growth phase to express recombinant proteins in yeast transformants, and microsome fractions were prepared therefrom using the method of Yazaki et al. (JBC, 2002, 277, 6240-6246). The total amount of the reaction solution was adjusted to 200 μl by mixing 340 μg to 730 μg of proteins from the microsome fractions, flavonoid (1 mM), a prenyl group donor (1 mM), 20 mM MgCl2, and 100 mM Tris-HCl buffer (pH 7.5), and the reaction was allowed to proceed at 30° C. overnight. After the completion of the reaction, the product was extracted with ethyl acetate, dried, and dissolved in methanol (MeOH). The resultant was analyzed using Shimadzu LCMS-2010A and LCMS-IT-TOF (Shimadzu Corporation), TSK-GEL ODS-80Ts 2.0 mm×25 cm (TOSOH), and a solvent system (0.3% formic acid:acetonitrile=3:7) at a flow rate of 0.2 ml/min−1. […] These compounds had not been prepared via the heterologous expression system with the use of a plant-derived gene in the past. 6-Geranylnaringenin (peak c in FIG. 4) was compared with a standard sample (provided by Associate professor Tomohisa Kuzuyama, the University of Tokyo), and the same retention time and identical fragments were observed (FIG. 5). Thus, novel prenyltransferase (i.e., H1PT1 full-length: 1,224 bp, ORF: […].; H1PT2 full-length: 1,233 bp, ORF: 411 a.a.) was obtained. The amino acid sequences of proteins encoded by H1PT1 and H1PT2 are shown in SEQ ID NOs: 1 and 2, respectively. The nucleotide sequences of H1PT1 and H1PT2 are shown in SEQ ID NOs: 3 and 4, respectively. […] Thus, H1PT1 was mainly subjected to analysis as described below; however, it was also possible to analyze H1PT2 in the same manner.
The Sophora flavescens gene (JP Patent Publication (Kokai) No. 2008-220304 A) and the soybean gene (Akashi et al., Plant Physiology 149: 683-693, 2009), which are already known, are known to encode enzymes that interact with limited substrates with very high specificity. The enzymatic properties of recombinant H1PT1 were analyzed using LCMS-IT-TOF. Geranyl diphosphate was used as a prenyl group donor for prenylation of various flavonoid-associated compounds (e.g., isoliquiritigenin, sakuranetin, taxifolin, or genistein).

H1PT2 prenyltransferase = biological target: T2, H1PT2 prenyltransferase (Humulus lupulus, UniProt E5RP65); assay: Prenyltransferase activity of recombinant H1PT2 (yeast microsome fraction), LC-MS analysis of products; assay type: biochemical; settings: flavonoid 1 mM, geranyl diphosphate 1 mM as prenyl group donor, 20 mM MgCl2, pH 7.5, 30° C. overnight; FIG. 4
T2 construct: made in house; host or cells: Saccharomyces cerevisiae W303-1A-Δcoq2 (microsome fraction)
T2 sequence (E5RP65 92-411): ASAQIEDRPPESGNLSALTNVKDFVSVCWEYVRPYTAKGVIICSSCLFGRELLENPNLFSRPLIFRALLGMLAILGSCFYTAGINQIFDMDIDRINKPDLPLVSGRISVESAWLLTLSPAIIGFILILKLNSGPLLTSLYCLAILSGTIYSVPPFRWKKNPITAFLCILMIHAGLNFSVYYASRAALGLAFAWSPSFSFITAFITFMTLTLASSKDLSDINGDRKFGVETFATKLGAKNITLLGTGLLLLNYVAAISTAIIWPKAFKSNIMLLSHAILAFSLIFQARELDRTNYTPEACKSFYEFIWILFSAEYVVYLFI
Method: as §1
Cloned plasmids (pDR196-H1PT1 and pDR196-H1PT2) comprising each full-length sequence of the two gene clusters (H1PT1 and H1PT2) were introduced into the yeast strain (W303-1A-Δcoq2) by the lithium acetate method. Culture was conducted in 180 ml of SD-Ura liquid medium up to the logarithmic growth phase to express recombinant proteins in yeast transformants, and microsome fractions were prepared therefrom using the method of Yazaki et al. (JBC, 2002, 277, 6240-6246). […] The resultant was analyzed using Shimadzu LCMS-2010A and LCMS-IT-TOF (Shimadzu Corporation), TSK-GEL ODS-80Ts 2.0 mm×25 cm (TOSOH), and a solvent system (0.3% formic acid:acetonitrile=3:7) at a flow rate of 0.2 ml/min−1. […]

SMILES	activity of transferring a prenyl group to substrate (substrate specificity) (H1PT1 prenyltransferase)	prenylated products from substrate (H1PT1 prenyltransferase; flavonoid 1 mM, geranyl diphosphate 1 mM as prenyl group donor, 20 mM MgCl2, pH 7.5, 30° C. overnight, FIG. 4)	prenylated products from substrate (H1PT2 prenyltransferase)
O=c1c(-c2ccc(O)cc2)coc2cc(O)cc(O)c12 [genistein]	activity of transferring a prenyl group to all substrates was observed	–	–
O=C(/C=C/c1ccc(O)cc1)c1ccc(O)cc1O [isoliquiritigenin]	activity of transferring a prenyl group to all substrates was observed	–	–
O=C1C[C@@H](c2ccc(O)cc2)Oc2cc(O)cc(O)c21 [naringenin]	–	a compound into which prenyl had been introduced at position 6 and a compound into which prenyl was deduced to have been introduced at position 8 or 3′ were detected	a compound into which prenyl had been introduced at position 6 and a compound into which prenyl was deduced to have been introduced at position 8 or 3′ were detected
COc1cc(O)c2c(c1)O[C@H](c1ccc(O)cc1)CC2=O [sakuranetin]	activity of transferring a prenyl group to all substrates was observed	–	–
O=C1c2c(O)cc(O)cc2O[C@H](c2ccc(O)c(O)c2)[C@H]1O [taxifolin]	activity of transferring a prenyl group to all substrates was observed	–	–
